How the values were obtained:
[1] = cited from earlier work
[2] = target: CDK1 (Homo sapiens, UniProt P06493); experiment: In vitro CDK1 kinase assay; format: biochemical
[3] = test system: primary hepatocytes; conditions: cited from earlier work
[4] = cited from earlier work; remark: listed apart in the source

CDK1, sequence (P20248 whole entry): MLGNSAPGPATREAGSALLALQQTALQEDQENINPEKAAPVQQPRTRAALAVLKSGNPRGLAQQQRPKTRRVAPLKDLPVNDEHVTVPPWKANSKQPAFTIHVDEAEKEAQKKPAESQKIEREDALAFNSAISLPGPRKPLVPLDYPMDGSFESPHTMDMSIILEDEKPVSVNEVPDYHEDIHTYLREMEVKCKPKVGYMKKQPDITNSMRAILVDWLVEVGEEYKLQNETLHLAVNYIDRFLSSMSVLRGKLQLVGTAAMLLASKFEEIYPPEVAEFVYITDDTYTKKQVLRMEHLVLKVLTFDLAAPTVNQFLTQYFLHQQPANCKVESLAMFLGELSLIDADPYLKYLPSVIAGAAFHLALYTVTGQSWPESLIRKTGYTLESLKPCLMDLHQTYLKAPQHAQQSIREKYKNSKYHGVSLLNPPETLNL
CDK1, sequence (P06493 whole entry): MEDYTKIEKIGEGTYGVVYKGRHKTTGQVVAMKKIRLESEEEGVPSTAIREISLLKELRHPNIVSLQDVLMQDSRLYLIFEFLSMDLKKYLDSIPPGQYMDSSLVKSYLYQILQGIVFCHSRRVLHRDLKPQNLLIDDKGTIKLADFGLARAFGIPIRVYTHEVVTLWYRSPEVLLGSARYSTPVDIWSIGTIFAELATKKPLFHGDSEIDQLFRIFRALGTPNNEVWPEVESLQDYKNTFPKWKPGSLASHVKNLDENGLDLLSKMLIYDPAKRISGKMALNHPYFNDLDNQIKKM

Question: Which Cytotoxicity profile [1] does the source give for `CC(C)OC(=O)[C@H](C)N[P@](=O)(CO[C@H](C)Cn1cnc2c(N)ncnc21)Oc1ccccc1` [DB_1, tenofovir alafenamide] here?
Answer: minimal cytotoxic effects

Question: And the Mitochondrial toxicity [1]?
Answer: low potential for mitochondrial toxicity

Question: What about the IC50 [2] of the same molecule?
Answer: 2.82 µM

Question: With `CCO[C@@H](Cc1ccc(OCCc2ccc(OS(C)(=O)=O)cc2)cc1)C(=O)O` [DB_6, tesaglitazar] as the molecule, how does the IC50 [2] read?
Answer: 4.37 µM

Question: And the “Toxicity to primary hepatocytes” value [3]?
Answer: no significant toxicity

Question: With `O=C1NC(=NCc2cccs2)S/C1=C\c1ccc2ncccc2c1` [RO-3306] as the molecule, how does the CDK1 activity ([2]; 1 μM) read?
Answer: around 20%

Question: What about the CDK1 inhibition ([2]; higher concentrations (10 and 100 μM)) of the same molecule?
Answer: 100%

Question: And the “Clearance from the blood plasma” value [4]?
Answer: rapid clearance

Question: With `Cc1cc2cc(Oc3ccnc(Nc4cccc(CS(=O)(=O)NCCN(C)C)c4)n3)ccc2[nH]1` [DB_7, Surufatinib] as the molecule, how does the IC50 [2] read?
Answer: 5.94 µM

— publication PMC11425824 (ACS Omega, 2024)
